From US20060147516A1, “Taste masking system for alprazolam” (CIMA LABS INC., priority 2005, published 2006)

Experiment: Solubility of alprazolam in ethanol (coating solvent)
Type: physicochemical
Settings: at working concentrations in ethanol
Protocol: The resulting particles were discreet, non-tacky and exceptionally workable. By working with various materials, and without wishing to be bound by a particular theory, it was determined that certain drugs react and/or interact with the polymer materials in the taste masking coating material, changing their individual characters rendering the material more tacky. The present invention intends to encompass only those active pharmaceutical ingredients that would not so adversely affect workability so as to prevent their effective use in forming discrete, preferably free flowing, well coated, well characterized solid supports, which may be further coated. Active pharmaceutical ingredients that may be used in addition to alprazolam in accordance with the present invention may include, without limitation, analgesics, anti-inflammatories, antipyretics, antibiotics, antimicrobials, anxiolytics, laxatives, anorexics, antihistamines, antidepressants, antiasthmatics, antidiuretics, antiflatuents, antimigraine agents, antispasmodics, sedatives, antihyperactives, antihypertensives, tranquilizers, decongestants, beta blockers, peptides, proteins, oligonucleotides and other substances of biological origin, and combinations thereof. Also contemplated are the drugs and pharmaceutically active ingredients described in Mantelle, U.S. Pat. No. 5,234,957, in columns 18 through 21. […]

## Cc1nnc2n1-c1ccc(Cl)cc1C(c1ccccc1)=NC2 [alprazolam]
  solubility in ethanol: sparingly soluble
